Reference: DBAASP
In brackets after ≈: the same amount, converted by molar mass. Several values for one entry are separate records, joined by “and”; a condition that tells them apart may be missing. Identical values can stand only once.

Legend:
Assay in all cases: ≥ marks a high value that may be exact or a test limit, other limits are often not marked, values filed in µg/mL are converted to µM
[1] = system: Enterococcus faecalis ATCC 29212
[2] = system: Staphylococcus aureus 936
[3] = system: Klebsiella pneumoniae ATCC 700603
[4] = system: Staphylococcus aureus ATCC 25923
[5] = system: Escherichia coli ATCC 25922
[6] = system: Pseudomonas aeruginosa 2760
[7] = system: Bacillus subtilis ATCC 23857
Escherichia coli 850 = system: Escherichia coli 850
[8] = system: Staphylococcus aureus 725
Escherichia coli 780 = system: Escherichia coli 780
Acinetobacter baumannii = system: Acinetobacter baumannii
[9] = system: Acinetobacter baumannii ATCC 19606
[10] = system: Pseudomonas aeruginosa ATCC 27853
[11] = system: Staphylococcus aureus NCTC 8325-4
[12] = system: Salmonella enterica subsp. enterica serovar Typhimurium LT2
[13] = system: Cronobacter muytjensii ATCC 51329
[14] = system: Cronobacter sakazakii DSM 4485
[15] = system: Staphylococcus aureus RF122
[16] = system: Cronobacter sakazakii DPC 6440
[17] = system: Staphylococcus aureus Newman
[18] = system: Staphylococcus aureus SA113
[19] = system: Escherichia coli NCIMB 11843
[20] = system: Pseudomonas fluorescens NCIMB 9046
[21] = system: Staphylococcus aureus RN4220
[22] = system: Cronobacter sakazakii ATCC BAA-894
[23] = system: Klebsiella pneumoniae NCIMB 13218
[24] = system: Klebsiella pneumoniae 08040724
[25] = system: Enterococcus faecalis 981
[26] = system: Candida albicans ATCC 10231
[27] = system: Enterobacter cloacae CGMCC 1.57
Candida glabrata 090902 = system: Candida glabrata 090902
[28] = system: Nocardia asteroides 201118
[29] = system: Psychrobacter faecalis X29
[30] = system: Enterococcus faecium 091299
Escherichia coli DL7 = system: Escherichia coli DL7
[31] = system: Klebsiella aerogenes ATCC 13048
Bacillus subtilis PS832 = system: Bacillus subtilis PS832
[32] = system: Staphylococcus epidermidis ATCC 12228
[33] = system: Pseudomonas aeruginosa ATCC 21625
[34] = system: Pseudomonas aeruginosa LCCI
[35] = system: Salmonella enterica subsp. enterica serovar Typhimurium C77-31
[36] = system: Pseudomonas aeruginosa ATCC 21630
[37] = system: Pseudomonas aeruginosa LC
[38] = system: Pseudomonas aeruginosa LCGE
[39] = system: Pseudomonas aeruginosa LCCE
[40] = system: Staphylococcus aureus ATCC 29213
[41] = system: Pseudomonas aeruginosa ATCC 10419
[42] = system: Staphylococcus aureus 68 HER 1049
[43] = system: Escherichia coli K12 MG1655

CC[C@H](C)[C@H](NC(=O)[C@H](CCCCN)NC(=O)[C@H](CCCCN)NC(=O)[C@H](C)NC(=O)[C@H](CC(C)C)NC(=O)[C@H](C)NC(=O)[C@H](C)NC(=O)[C@H](CC(C)C)NC(=O)[C@@H]1CCCN1C(=O)[C@H](CCCCN)NC(=O)[C@H](CC(C)C)NC(=O)[C@H](CC(N)=O)NC(=O)[C@@H](NC(=O)[C@H](CCCCN)NC(=O)CNC(=O)[C@H](CC(C)C)NC(=O)[C@H](CC(C)C)NC(=O)[C@H](Cc1ccc(O)cc1)NC(=O)CNC(=O)[C@H](C)N)[C@@H](C)CC)C(=O)N[C@@H](CC(C)C)C(N)=O [AGYLLGKINLKPLAALAKKIL]
MIC [1]: > 58 µM
MIC [2]: ≥ 58 µM
MIC [3]: 29 µM (≈ 64 µg/mL)
MIC [4]: 58 µM (≈ 128 µg/mL)
MIC [5]: 7.24 µM (≈ 16 µg/mL)
MIC [6]: 29 µM (≈ 64 µg/mL)
MIC [7]: 3.62 µM (≈ 8 µg/mL)
MIC (Escherichia coli 850): 7.24 µM (≈ 16 µg/mL)
MIC [8]: 29 µM (≈ 64 µg/mL)
MIC (Escherichia coli 780): 14.5 µM (≈ 32 µg/mL)
MIC (Acinetobacter baumannii): 3.62 µM (≈ 8 µg/mL)
MIC [9]: 3.62 µM (≈ 8 µg/mL)
MIC [10]: 58 µM (≈ 128 µg/mL)

CC(C)C[C@H](NC(=O)CNC(=O)[C@H](CCC(N)=O)NC(=O)[C@H](Cc1cnc[nH]1)NC(=O)[C@H](CCCCN)NC(=O)[C@H](C)N)C(=O)N1CCC[C@H]1C(=O)N[C@@H](CCC(N)=O)C(=O)N[C@@H](CCC(=O)O)C(=O)O [AKHQGLPQE]
MIC [11]: ≥ 1250 µM
MIC [12]: ≥ 2500 µM
MIC [13]: ≥ 1250 µM
MIC [14]: ≥ 1250 µM
MIC [15]: ≥ 2500 µM
MIC [16]: ≥ 1250 µM
MIC [17]: ≥ 2500 µM
MIC [18]: ≥ 2500 µM
MIC [19]: ≥ 2500 µM
MIC [20]: ≥ 2500 µM
MIC [21]: ≥ 2500 µM
MIC [22]: ≥ 1250 µM
MIC [23]: ≥ 2500 µM

CC[C@H](C)[C@H](NC(=O)CNC(=O)[C@@H](NC(=O)[C@H](C)NC(=O)[C@H](C)NC(=O)[C@H](CCCCN)NC(=O)[C@@H](NC(=O)[C@H](CC(C)C)NC(=O)CNC(=O)[C@@H]1CCCN1C(=O)[C@H](CC(C)C)NC(=O)[C@@H](N)Cc1ccccc1)[C@@H](C)CC)C(C)C)C(=O)NCC(=O)N[C@@H](CO)C(=O)N[C@H](C(=O)N[C@H](C(=O)N[C@@H](Cc1ccccc1)C(=O)N[C@H]1CSSC[C@@H](C(=O)O)NC(=O)[C@H](CCCCN)NC(=O)[C@H](CCCN=C(N)N)NC(=O)[C@H](CO)NC(=O)[C@H]([C@@H](C)CC)NC(=O)[C@H](CCCCN)NC1=O)[C@@H](C)CC)[C@@H](C)O [FLPGLIKAAVGIGSTIFCKISRKC]
MIC [24]: ≥ 100 µM
MIC [25]: 3.1 µM (≈ 7.82 µg/mL)
MIC [26]: 50 µM (≈ 126 µg/mL)
MIC [27]: ≥ 100 µM
MIC (Candida glabrata 090902): 3.1 µM (≈ 7.82 µg/mL)
MIC [28]: 3.1 µM (≈ 7.82 µg/mL)
MIC [4]: 3.1 µM (≈ 7.82 µg/mL)
MIC [29]: 25 µM (≈ 63 µg/mL)
MIC [5]: 100 µM (≈ 252 µg/mL)
MIC [30]: ≥ 100 µM

CC(C)C[C@H](NC(=O)CNC(=O)[C@H](C)NC(=O)[C@H](CCCN=C(N)N)NC(=O)[C@H](Cc1cnc[nH]1)NC(=O)CNC(=O)CN)C(=O)N[C@@H](CCC(N)=O)C(=O)N[C@@H](Cc1ccccc1)C(=O)N1CCC[C@H]1C(=O)N[C@H](C(=O)NCC(=O)N[C@@H](CCCN=C(N)N)C(=O)N[C@H](C(=O)N[C@@H](Cc1cnc[nH]1)C(=O)N[C@@H](CCCN=C(N)N)C(=O)N[C@@H](CC(C)C)C(=O)N[C@@H](CC(C)C)C(=O)N[C@@H](CCCN=C(N)N)C(=O)N[C@@H](CCCCN)C(N)=O)C(C)C)C(C)C [GGHRAGLQFPVGRVHRLLRK]
MIC (Escherichia coli DL7): 16 µM and 8 µM
MIC [31]: ≥ 32 µM
MIC (Bacillus subtilis PS832): 4 µM (≈ 9.01 µg/mL)
MIC [32]: 16 µM (≈ 36.1 µg/mL)

CC[C@H](C)[C@H](NC(=O)[C@H](CCCCN)NC(=O)[C@H](CCCCN)NC(=O)[C@H](CC(C)C)NC(=O)[C@H](CCCN=C(N)N)NC(=O)[C@H](CCCCN)NC(=O)[C@H](CCCN=C(N)N)NC(=O)[C@H](Cc1ccccc1)NC(=O)[C@H](CCCCN)NC(=O)[C@H](CCCCN)NC(=O)[C@H](CCCN=C(N)N)NC(=O)[C@H](CC(C)C)NC(=O)[C@H](CCCN=C(N)N)NC(=O)[C@H](CCCN=C(N)N)NC(=O)[C@H](Cc1ccccc1)NC(=O)[C@@H](N)CCCN=C(N)N)C(N)=O [RFRRLRKKFRKRLKKI]
MIC [33]: ≥ 256 µM
MIC [34]: ≥ 256 µM
MIC [35]: ≥ 128 µM
MIC [36]: ≥ 256 µM
MIC [37]: ≥ 64 µM
MIC [5]: 64 µM (≈ 143 µg/mL)
MIC [38]: ≥ 256 µM
MIC [39]: ≥ 256 µM
MIC [40]: 128 µM (≈ 285 µg/mL)
MIC [41]: ≥ 256 µM
MIC [32]: 32 µM (≈ 71.3 µg/mL)
MIC [10]: 256 µM (≈ 571 µg/mL)

CC(C)C[C@H](NC(=O)[C@H](CCCN=C(N)N)NC(=O)[C@H](CCCCN)NC(=O)[C@H](Cc1c[nH]c2ccccc12)NC(=O)[C@H](Cc1c[nH]c2ccccc12)NC(=O)[C@H](CCCCN)NC(=O)[C@H](Cc1c[nH]c2ccccc12)NC(=O)[C@@H](N)Cc1c[nH]c2ccccc12)C(=O)N[C@@H](CCCN=C(N)N)C(=O)N[C@@H](CCCN=C(N)N)C(=O)N[C@@H](CC(C)C)C(=O)N[C@@H](Cc1ccccc1)C(=O)N[C@@H](CC(C)C)C(=O)N[C@@H](CC(C)C)C(=O)N[C@H](C(=O)O)C(C)C [WWKWWKRLRRLFLLV]
MIC [42]: 7.32 µM (≈ 16 µg/mL)
MIC [43]: 7.32 µM (≈ 16 µg/mL)
